20 compounds from patent US12071425B2 (Genentech, Inc., priority 2018, dated 2024) can be followed below.

Structures can show the parent of a compound that is named as a salt.

kinase domain of IRE1 alpha (His-tagged kinase dead construct KR, AA G547-L977, D688N), sequence (O75460 547-977 D688N): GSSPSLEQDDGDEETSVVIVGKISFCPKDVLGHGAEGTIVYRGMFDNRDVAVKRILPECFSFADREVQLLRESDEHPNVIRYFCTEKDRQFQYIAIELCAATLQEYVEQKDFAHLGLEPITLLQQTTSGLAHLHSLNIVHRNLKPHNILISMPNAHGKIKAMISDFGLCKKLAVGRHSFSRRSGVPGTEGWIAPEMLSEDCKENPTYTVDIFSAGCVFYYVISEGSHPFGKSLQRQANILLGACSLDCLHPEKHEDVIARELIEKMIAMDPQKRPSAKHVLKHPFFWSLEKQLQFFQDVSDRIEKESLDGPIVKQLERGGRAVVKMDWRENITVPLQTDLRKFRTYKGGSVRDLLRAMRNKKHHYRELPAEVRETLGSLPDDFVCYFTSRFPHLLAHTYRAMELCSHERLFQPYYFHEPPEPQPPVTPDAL

In this assay the target is kinase domain of IRE1 alpha (His-tagged kinase dead construct KR, AA G547-L977, D688N) (Homo sapiens (Human), UniProt O75460, D688N). Put plainly: IRE1α TR-FRET competition binding assay. Conditions: competition with Kinase Tracer 236, 0.1 μM; one hour at room temperature. The method, boiled down:
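Sf9-expressed kinase-dead KR construct (0.006 μM final) pre-incubated 1 h at 4° C with Eu anti-His antibody (0.002 μM) in HEPES pH 7.5/MgCl2/Brij/DTT buffer; Kinase Tracer 236 (ATP-competitive probe, 0.1 μM final) added with compound. 1 h at room temperature; tracer displacement read by TR-FRET (665/615 nm).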
Broadly, the IC50 is the concentration that inhibits the measured activity by half. Low readings indicate inhibition by little substance, high ones a need for much substance. `Cc1cc(CS(=O)(=O)Nc2c(F)cc(Oc3ncccc3-c3ccnc(N[C@H]4CCCNC4)n3)c(F)c2F)no1` [Compound 195, (S)-1-(5-methylisoxazol-3-yl)-N-(2,3,6-trifluoro-4-((3-(2-(piperidin-3-ylamino)pyrimidin-4-yl)pyridin-2-yl)oxy)phenyl)methanesulfonamide] displayed an IC50 of 4.6 nM.

`N#Cc1ccccc1CS(=O)(=O)Nc1c(F)cc(Oc2ncccc2-c2ccnc(N[C@@H]3CNC[C@@H](F)C3)n2)c(F)c1F` [Compound 358] gave an IC50 of 0.3 nM.

As to `COc1ccccc1S(=O)(=O)Nc1ccc(Oc2ncccc2-c2ccnc(N[C@H]3CCCNC3)n2)c(F)c1F` [Compound 224, (S)-N-(2,3-difluoro-4-((3-(2-(piperidin-3-ylamino)pyrimidin-4-yl)pyridin-2-yl)oxy)phenyl)-2-methoxybenzenesulfonamide], the IC50 turned out to be 40 nM.

In turn, `NC(=O)c1ccc(CS(=O)(=O)Nc2c(F)cc(Oc3ncccc3-c3ccnc(N[C@@H]4CNC[C@@H](F)C4)n3)c(F)c2F)c(F)c1` [Compound 361, 3-Fluoro-4-[[2,3,6-trifluoro-4-[[3-[2-[[(3S,5S)-5-fluoro-3-piperidyl]amino]pyrimidin-4-yl]-2-pyridyl]oxy]phenyl]sulfamoylmethyl]benzamide] gave an IC50 of 0.3 nM.

In the case of `COCCN(C)[C@H]1CC[C@H](Nc2nccc(-c3cccnc3Oc3cc(F)c(NS(=O)(=O)C4CCCCC4)c(F)c3F)n2)CC1` [Compound 350, N-(2,3,6-Trifluoro-4-((3-(2-(((1r,4r)-4-((2-methoxyethyl)(methyl)amino)cyclohexyl)amino)pyrimidin-4-yl)pyridin-2-yl)oxy)phenyl)cyclohexanesulfonamide], the IC50 stood at 0.42 nM.

In the case of `CC(F)C1CNCC(Nc2nccc(-c3cccnc3Oc3cc(F)c(NS(=O)(=O)Cc4ccccc4)c(F)c3F)n2)C1` (single isomer, unassigned) [Compound 348, 1-Phenyl-N-(2,3,6-trifluoro-4-((3-(2-((5-(1-fluoroethyl)piperidin-3-yl)amino)pyrimidin-4-yl)pyridin-2-yl)oxy)phenyl)methanesulfonamide], the IC50 was 0.2 nM. This IC50 is about 2.1-fold lower than that of the compound before.

As to `O=S(=O)(Cc1ccccc1)Nc1c(F)cc(Oc2ncccc2-c2ccnc(N[C@H]3CNC[C@H](F)C3)n2)c(F)c1F` [Compound 193, 1-phenyl-N-(2,3,6-trifluoro-4-((3-(2-(((3R,5R)-5-fluoro-3-piperidyl)amino)pyrimidin-4-yl)-2-pyridyl)oxy)phenyl)methanesulfonamide], the IC50 was found to be 33 nM.

`O=S(=O)(CC1CCC1(F)F)Nc1ccc(Oc2ncccc2-c2ccnc(N[C@H]3CCCNC3)n2)c(F)c1F` (stereo partly drawn) [Compound 192, N-(2,3-difluoro-4-((3-(2-(((S)-piperidin-3-yl)amino)pyrimidin-4-yl)pyridin-2-yl)oxy)phenyl)-1-(2,2-difluorocyclobutyl)methanesulfonamide hydrochloride] registered an IC50 of 9.7 nM.

In turn, `O=S(=O)(Cc1cccnc1)Nc1c(F)cc(Oc2ncccc2-c2ccnc(N[C@@H]3CNC[C@@H](F)C3)n2)c(F)c1F` [Compound 256, 1-(Pyridin-3-yl)-N-(2,3,6-trifluoro-4-((3-(2-(((3S,5S)-5-fluoropiperidin-3-yl)amino)pyrimidin-4-yl)pyridin-2-yl)oxy)phenyl)methanesulfonamide] registered an IC50 of 1 nM.

`CC(C)(F)C1CNCC(Nc2nccc(-c3cccnc3Oc3cc(F)c(NS(=O)(=O)Cc4ccccc4)c(F)c3F)n2)C1` (centres unmarked) [Compound 333, 1-Phenyl-N-(2,3,6-trifluoro-4-((3-(2-((5-(2-fluoropropan-2-yl)piperidin-3-yl)amino)pyrimidin-4-yl)pyridin-2-yl)oxy)phenyl)methanesulfonamide hydrochloride]: the IC50 is 0.19 nM.

On to `O=S(=O)(Cc1ccccc1)Nc1ccc(Oc2ncccc2-c2ccnc(N[C@H]3CCNC3)n2)c(F)c1F` [Compound 167, (S)—N-(2,3-Difluoro-4-((3-(2-(pyrrolidin-3-ylamino)pyrimidin-4-yl)pyridin-2-yl)oxy)phenyl)-1-phenylmethanesulfonamide], for which the IC50 stood at 17 nM.

For `O=S(=O)(Cc1ccccc1C(F)(F)F)Nc1c(F)cc(Oc2ncccc2-c2ccnc(N[C@@H]3CNC[C@@H](F)C3)n2)c(F)c1F` [Compound 373, N-(2,3,6-Trifluoro-4-((3-(2-(((3S,5S)-5-fluoropiperidin-3-yl)amino)pyrimidin-4-yl)pyridin-2-yl)oxy)phenyl)-1-(2-(trifluoromethyl)phenyl)methanesulfonamide], the IC50 stood at 0.3 nM.

On to `O=S(=O)(Cc1ccc(Cl)cc1F)Nc1c(F)cc(Oc2ncccc2-c2ccnc(N[C@@H]3CNC[C@@H](F)C3)n2)c(F)c1F` [Compound 364, 1-(4-Chloro-2-fluoro-phenyl)-N-[2,3,6-trifluoro-4-[[3-[2-[[(3S,5S)-5-fluoro-3-piperidyl]amino]pyrimidin-4-yl]-2-pyridyl]oxy]phenyl]methanesulfonamide], for which the IC50 was 0.3 nM.

In turn, `O=S(=O)(Cc1ccccc1)Nc1ccc(Oc2ncccc2-c2ccnc(NC3CCNCC3)n2)c(F)c1F` [Compound 180, N-(2,3-difluoro-4-((3-(2-(4-piperidylamino)pyrimidin-4-yl)-2-pyridyl)oxy)phenyl)-1-phenyl-methanesulfonamide] registered an IC50 of 38 nM.

For `O=S(=O)(CC1CC(F)(F)C1)Nc1ccc(Oc2ncccc2-c2ccnc(N[C@H]3CCCNC3)n2)c(F)c1F` [Compound 232, (S)-N-(2,3-difluoro-4-(3-(2-(piperidin-3-ylamino)pyrimidin-4-yl)pyridin-2-yloxy)phenyl)-1-(3,3-difluorocyclobutyl)methanesulfonamide], the IC50 turned out to be 15 nM.

The compound `O=S(=O)(Cc1cccnc1)Nc1ccc(Oc2ncccc2-c2ccnc(N[C@H]3CCCNC3)n2)c(F)c1F` [Compound 233, (S)-N-(2,3-difluoro-4-(3-(2-(piperidin-3-ylamino)pyrimidin-4-yl)pyridin-2-yloxy)phenyl)-1-(pyridin-3-yl)methanesulfonamide] showed an IC50 of 9 nM.

`O=S(=O)(Nc1c(F)cc(Oc2ncccc2-c2ccnc(N[C@@H]3CNC[C@@H](F)C3)n2)c(F)c1F)N1CCCC1` [Compound 258, N-(2,3,6-Trifluoro-4-((3-(2-(((3S,5S)-5-fluoropiperidin-3-yl)amino)pyrimidin-4-yl)pyridin-2-yl)oxy)phenyl)pyrrolidine-1-sulfonamide] returned an IC50 of 5.2 nM.

`N#Cc1ccc(CS(=O)(=O)Nc2ccc(Oc3ncccc3-c3ccnc(N[C@H]4CCCNC4)n3)c(F)c2F)cc1` [Compound 250, (S)-1-(4-Cyanophenyl)-N-(2,3-difluoro-4-((3-(2-(piperidin-3-ylamino)pyrimidin-4-yl)pyridin-2-yl)oxy)phenyl)methanesulfonamide] returned an IC50 of 4.9 nM.

`O=S(=O)(Cc1ccccc1)Nc1c(F)cc(Oc2ncccc2-c2ccnc(N[C@@H]3CNC[C@H](CF)C3)n2)c(F)c1F` [Compound 262, 1-Phenyl-N-(2,3,6-trifluoro-4-((3-(2-(((3S,5R)-5-(fluoromethyl)piperidin-3-yl)amino)pyrimidin-4-yl)pyridin-2-yl)oxy)phenyl)methanesulfonamide] yielded an IC50 of 0.25 nM.

Compound `COC1CNCC(Nc2nccc(-c3cccnc3Oc3cc(F)c(NS(=O)(=O)Cc4ccccc4)c(F)c3F)n2)C1` (single isomer, unassigned) [Compound 319, 1-Phenyl-N-(2,3,6-trifluoro-4-((3-(2-((5-methoxypiperidin-3-yl)amino)pyrimidin-4-yl)pyridin-2-yl)oxy)phenyl)methanesulfonamide] returned an IC50 of 0.48 nM.
